The target in this assay is T1, Endothelial lipase (Homo sapiens, UniProt Q9Y5X9).
T1 sequence (Q9Y5X9 whole entry): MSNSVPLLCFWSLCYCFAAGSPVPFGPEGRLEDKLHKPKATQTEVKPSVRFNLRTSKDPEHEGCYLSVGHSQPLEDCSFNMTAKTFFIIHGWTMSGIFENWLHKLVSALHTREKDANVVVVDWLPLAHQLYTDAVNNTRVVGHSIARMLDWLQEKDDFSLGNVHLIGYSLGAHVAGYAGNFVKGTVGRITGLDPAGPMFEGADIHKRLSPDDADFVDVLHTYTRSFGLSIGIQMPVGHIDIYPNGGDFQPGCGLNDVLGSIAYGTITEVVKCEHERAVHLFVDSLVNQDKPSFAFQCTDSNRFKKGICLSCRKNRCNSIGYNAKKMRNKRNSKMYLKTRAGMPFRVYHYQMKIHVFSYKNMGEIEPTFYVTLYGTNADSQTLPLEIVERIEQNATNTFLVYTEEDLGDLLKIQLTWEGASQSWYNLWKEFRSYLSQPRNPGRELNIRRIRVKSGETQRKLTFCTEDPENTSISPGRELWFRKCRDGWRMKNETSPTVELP
Description: Inhibition Assay: After the present compound dissolved in DMSO was added to become 0.5% DMSO to the reaction buffer consisting of 20 mM tris hydrochloric acid (pH7.4), bovine serum albumin (0.5%), calcium chloride (4 mM), sodium chloride (150 mM) and human HDL (2 mg/ml), the EL enzyme was added (total volume was 20 μl). After 4-hour reaction at 37 C., non-esterified fatty acid (NEFA) generated from HDL by EL was measured with a commercially available assay kit and the amount of NEFA was used as an index of enzyme activity. Considering the enzyme activity without the inhibitor as a control value, the inhibition rate of each concentration of the present compound was calculated, and 50% inhibitory concentration (IC50 value) was calculated from an inhibition curve.

The text below walks through data of ChEMBL document CHEMBL3639243, “Oxadiazole derivative having endothelial lipase inhibitory activity” (2014).

Molecules are shown by their SMILES.

Usually IC50 stands for the concentration needed to halve the response being measured.

On to `N#CC1(NC(=O)Cc2nnc(Cc3nc4ccc(-c5ccc(Cl)s5)c(F)c4s3)o2)CC1`, for which the IC50 was 0.014 µM.
